From patent US10526337B2, “Heteroaryl derivative or pharmaceutically acceptable salt thereof, preparation method therefor, and pharmaceutical composition for preventing or treating diseases associated with PI3 kinases, containing same as active ingredient” (KOREA RESEARCH INSTITUTE OF CHEMICAL TECHNOLOGY, priority 2015, dated 2020)

Tests used:
[1] = molecular target: T1, PI3 Kinase (p120γ) (h) (Homo sapiens, UniProt P48736); experiment: Inhibition of phosphatidylinositol 3-kinase gamma (PI3K γ), pAkt Western blotting in C5a-stimulated RAW264.7 macrophages; assay type: cell-based, mouse; conditions: ATP=10 uM, sample concentration=100 nM
T1 construct: endogenous in cells; host or cells: RAW264.7
T1 sequence (P48736 whole entry): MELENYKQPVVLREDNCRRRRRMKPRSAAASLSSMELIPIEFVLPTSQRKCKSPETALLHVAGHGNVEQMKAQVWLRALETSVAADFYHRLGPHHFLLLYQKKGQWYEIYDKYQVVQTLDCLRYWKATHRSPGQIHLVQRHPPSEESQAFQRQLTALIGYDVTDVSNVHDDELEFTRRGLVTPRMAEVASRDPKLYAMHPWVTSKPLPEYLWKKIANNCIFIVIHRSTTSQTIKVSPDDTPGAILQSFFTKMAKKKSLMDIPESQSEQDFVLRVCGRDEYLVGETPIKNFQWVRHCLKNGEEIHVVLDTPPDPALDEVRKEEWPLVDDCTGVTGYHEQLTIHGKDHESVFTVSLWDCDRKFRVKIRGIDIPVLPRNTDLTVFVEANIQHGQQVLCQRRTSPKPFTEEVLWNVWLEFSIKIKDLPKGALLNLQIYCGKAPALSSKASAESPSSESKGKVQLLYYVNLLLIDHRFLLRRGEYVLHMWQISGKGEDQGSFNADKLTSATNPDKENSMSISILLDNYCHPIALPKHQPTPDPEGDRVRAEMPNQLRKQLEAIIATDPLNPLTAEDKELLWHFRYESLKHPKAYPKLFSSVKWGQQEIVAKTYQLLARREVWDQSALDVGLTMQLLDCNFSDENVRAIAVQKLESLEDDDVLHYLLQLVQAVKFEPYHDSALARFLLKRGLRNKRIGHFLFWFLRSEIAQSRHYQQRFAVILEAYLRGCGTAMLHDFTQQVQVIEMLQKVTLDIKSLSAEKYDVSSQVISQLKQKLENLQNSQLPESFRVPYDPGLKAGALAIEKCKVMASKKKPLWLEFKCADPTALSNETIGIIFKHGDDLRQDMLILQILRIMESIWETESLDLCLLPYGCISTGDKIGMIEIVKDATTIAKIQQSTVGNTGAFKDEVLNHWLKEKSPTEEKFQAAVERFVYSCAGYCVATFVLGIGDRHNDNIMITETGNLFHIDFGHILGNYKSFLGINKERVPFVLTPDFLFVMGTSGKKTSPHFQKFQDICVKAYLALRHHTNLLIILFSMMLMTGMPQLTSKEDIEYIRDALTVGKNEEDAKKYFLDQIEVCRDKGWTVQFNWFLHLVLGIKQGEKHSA
Procedure: (§1) The stimulated cells were transferred in a 1.5 mL tube, followed by centrifugation at 3000 rpm for 1 minute. 100 μL of RIPA buffer (radioimmunoprecipitation assay buffer, 50 mM Tris-HCl, 5 mM EDTA, 150 mM NaCl, 1% NP-40, 1 mM PMSF, pH 8.0; ELPIS, Korea) was added thereto, which was stored in a 4° C. refrigerator for 12 hours. Centrifugation was performed at 4° C. at 14,000 rpm for 20 minutes. The supernatant was transferred into a new 1.5 mL tube. Protein was quantified by BCA (bicinchoninic acid) method and samples were prepared. The composition of the sample was as follows: sample buffer (ELPIS, EBA-1052) 5×, protein 10 μg, and 1× sample buffer to make the total volume 20 μL. The sample was heated at 100° C. for 5 minutes. The evaporated water vapor was condensed in a refrigerator. The liquid stained on the wall was fallen down by centrifugation for a few seconds. The sample proceeded to 10% SDS (Sodium Dodecyl Sulfate) acrylamide gel for separation. The separated protein was transferred onto PVDF (poly-vinyl difluoride) membrane, followed by reaction with pAkt (phospho protein kinase B) antibody (Ser473 or Thr308; Cell signaling, 9271s or 13038s) for 12 hours at 4° C. The membrane was washed with TBST (Tris-Buffered Saline with Tween 20, 10 mM Tris-HCl, pH 7.5, 150 mM NaCl, 0.1% Tween-20) three times for 5 minutes each, to which the secondary antibody (rabbit antibody, Santacruz, sc-2004) was added, followed by reaction at room temperature for 2 hours. The membrane was washed with TBST three times for 10 minutes each, to which ECL (enhanced chemiluminescence, Thermo, NCI34095KR) was sprayed. Bands were investigated by using LAS-3000.
The inhibition of phosphatidylinositol 3 kinase gamma (PI3K γ) by those compounds prepared in Examples 1˜98 was investigated by the following experiment. The inhibition activity of each compound was measured in the following conditions: ATP=10 uM, and sample concentration=100 nM.
(§2) Macrophages (RAW264.7) cultured in DMEM (Dulbecco's Modified Eagle Medium, Hyclon, SH30243.01) supplemented with 10% fetal bovine serum (Hyclon, USA) were distributed in a 12-well plate at the density of 1,000,000 cells/well. The cells were stabilized in a 37° C. CO2 for 24 hours and then treated with each compound for 1 and half hours. The cells were treated with 10 ng/mL of C5a (complement component 5a, 10 μg/mL; R&D, 2150-C5) to increase the intracellular activity of PI3K gamma. 5 minutes later, the medium was discarded and the cells were washed with cold PBS (phosphate buffered saline, Gibco, 14190-250). PBS was then eliminated completely by using a pipette. Western blotting was performed according to the same manner as described in step 2 of Experimental Example 1 to evaluate the intracellular PI3K gamma activity.

[2] = molecular target: T2, PI3 Kinase (p110δ/p85α) (h) (Homo sapiens, UniProt O00329); experiment: Inhibition of phosphatidylinositol 3-kinase delta (PI3K δ), pAkt Western blotting in IgM-stimulated Raji cells; assay type: cell-based; conditions: ATP=10 uM, sample concentration=100 nM
T2 construct: endogenous in cells; host or cells: Raji
T2 sequence (O00329 whole entry): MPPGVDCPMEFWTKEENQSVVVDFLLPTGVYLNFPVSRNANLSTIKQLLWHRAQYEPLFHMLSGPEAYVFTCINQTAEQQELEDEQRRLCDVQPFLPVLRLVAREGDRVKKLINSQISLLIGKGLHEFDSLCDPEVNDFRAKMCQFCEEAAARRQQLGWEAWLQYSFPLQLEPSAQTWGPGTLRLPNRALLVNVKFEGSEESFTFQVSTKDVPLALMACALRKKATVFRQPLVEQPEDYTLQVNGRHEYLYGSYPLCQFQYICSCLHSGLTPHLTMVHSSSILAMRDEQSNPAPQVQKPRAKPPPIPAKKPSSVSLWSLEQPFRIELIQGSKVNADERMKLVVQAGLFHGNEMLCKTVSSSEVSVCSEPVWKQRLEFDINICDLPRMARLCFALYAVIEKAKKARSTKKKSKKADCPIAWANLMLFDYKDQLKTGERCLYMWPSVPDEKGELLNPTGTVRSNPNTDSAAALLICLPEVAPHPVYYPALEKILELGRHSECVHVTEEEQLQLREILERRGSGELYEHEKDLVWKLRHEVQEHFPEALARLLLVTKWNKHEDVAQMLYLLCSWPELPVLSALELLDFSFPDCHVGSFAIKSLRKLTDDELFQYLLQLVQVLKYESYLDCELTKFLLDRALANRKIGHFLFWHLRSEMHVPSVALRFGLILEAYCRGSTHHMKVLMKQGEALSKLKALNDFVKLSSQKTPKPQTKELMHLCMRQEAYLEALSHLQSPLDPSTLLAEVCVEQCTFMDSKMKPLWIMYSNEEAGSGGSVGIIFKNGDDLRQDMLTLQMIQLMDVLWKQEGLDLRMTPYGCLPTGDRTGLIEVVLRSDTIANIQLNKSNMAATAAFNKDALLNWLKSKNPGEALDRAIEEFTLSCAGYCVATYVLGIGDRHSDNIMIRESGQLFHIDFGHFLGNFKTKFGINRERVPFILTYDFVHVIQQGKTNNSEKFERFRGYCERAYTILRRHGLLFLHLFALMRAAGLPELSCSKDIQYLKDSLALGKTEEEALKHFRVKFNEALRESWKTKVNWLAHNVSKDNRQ
T2 sequence (P27986 whole entry partner): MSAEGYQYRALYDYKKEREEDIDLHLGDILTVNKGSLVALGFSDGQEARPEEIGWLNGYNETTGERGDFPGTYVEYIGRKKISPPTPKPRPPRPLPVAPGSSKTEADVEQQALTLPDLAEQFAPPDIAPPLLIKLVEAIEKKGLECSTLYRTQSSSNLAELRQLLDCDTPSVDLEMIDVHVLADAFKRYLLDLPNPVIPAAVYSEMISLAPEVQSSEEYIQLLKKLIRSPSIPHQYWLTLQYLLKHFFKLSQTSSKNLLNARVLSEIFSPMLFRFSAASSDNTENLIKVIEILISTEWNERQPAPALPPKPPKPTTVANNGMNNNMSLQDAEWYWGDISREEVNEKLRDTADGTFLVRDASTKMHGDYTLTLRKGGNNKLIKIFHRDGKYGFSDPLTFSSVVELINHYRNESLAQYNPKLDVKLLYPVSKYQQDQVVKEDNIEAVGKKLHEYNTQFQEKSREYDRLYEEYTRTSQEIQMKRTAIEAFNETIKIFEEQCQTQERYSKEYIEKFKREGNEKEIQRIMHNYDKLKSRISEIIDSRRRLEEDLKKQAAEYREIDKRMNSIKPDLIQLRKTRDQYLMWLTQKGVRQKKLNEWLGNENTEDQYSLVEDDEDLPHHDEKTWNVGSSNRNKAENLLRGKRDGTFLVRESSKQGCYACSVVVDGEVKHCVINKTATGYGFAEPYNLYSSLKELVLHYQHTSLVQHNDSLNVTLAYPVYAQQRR
Procedure: as §1
The inhibition of phosphatidylinositol 3 kinase delta (PI3K δ) by those compounds prepared in Examples 1˜98 was investigated by the following experiment. The inhibition activity of each compound was measured in the following conditions: ATP=10 uM, and sample concentration=100 nM.
as §2, with “Raji cells” for “Macrophages (RAW264.7)”, “RPMI1640 (Hyclone, SH30027.02)” for “DMEM (Dulbecco's Modified Eagle Medium, Hyclon, SH30243.01)”, “0.25 μg/mL” for “10 ng/mL”, “IgM (immunoglobulin M, Southern Biotech, USA)” for “C5a (complement component 5a, 10 μg/mL; R&D, 2150-C5)”, “delta. 30” for “gamma. 5”, “delta” for “gamma”

Row | SMILES | IC50 [1] | IC50 [2]
1 | Cc1cccc(-n2c([C@@H]3CCCN3c3ncnc4[nH]cnc(=O)c34)nc3cccc(Cl)c3c2=O)c1 [Example 78, (S)-5-(2-(5-chloro-4-oxo-3-(m-tolyl)-3,4-dihydroquinazoline-2-yl)pyrrolidine-1-yl)pyrimido[4,5-d]pyrimidine-4(1H)-one] | > 500 nM | > 500 nM
2 | O=c1nc[nH]c2ncnc(N3CCC[C@H]3c3nn4ccc(Cl)c4c(=O)n3-c3cccc(F)c3)c12 [Example 80, (S)-5-(2-(5-chloro-3-(3-fluorophenyl)-4-oxo-3,4-dihydropyrrolo[2,1-f][1,2,4]triazine-2-yl)pyrrolidine-1-yl)pyrimido[4,5-d]pyrimidine-4(1H)-one] | > 500 nM | > 500 nM
3 | C[C@H](Nc1nc(N)nc2[nH]cnc(=O)c12)c1nc2cccc(Cl)c2c(=O)n1-c1cccnc1 [Example 82, (S)-7-amino-5-((1-(5-chloro-4-oxo-3-(pyridine-3-yl)-3,4-dihydroquinazoline-2-yl)ethyl)amino)pyrimido[4,5-d]pyrimidine-4(1H)-one] | 10 to 500 nM | 10 to 500 nM
4 | Cc1cccc(-n2c([C@H](C)Nc3nc(N)nc4[nH]cnc(=O)c34)nc3cccc(Cl)c3c2=O)c1 [Example 84, (S)-7-amino-5-((1-(5-chloro-4-oxo-3-(m-tolyl)-3,4-dihydroquinazoline-2-yl)ethyl)amino)pyrimido[4,5-d]pyrimidine-4(1H)-one] | 10 to 500 nM | 10 to 500 nM
5 | C[C@H](Nc1nc(N)nc2[nH]cnc(=O)c12)c1nn2ccc(Cl)c2c(=O)n1-c1cccc(F)c1 [Example 87, (S)-7-amino-5-((1-(5-chloro-3-(3-fluorophenyl)-4-oxo-3,4-dihydropyrrolo[2,1-f][1,2,4]triazine-2-yl)ethyl)amino)pyrimido[4,5-d]pyrimidine-4(1H)-one] | 10 to 500 nM | < 10 nM
6 | CC[C@H](Nc1nc(N)nc2[nH]cnc(=O)c12)c1nc2cccc(F)c2c(=O)n1-c1ccccc1 [Example 89, (S)-7-amino-5-((1-(5-fluoro-4-oxo-3-phenyl-3,4-dihydroquinazoline-2-yl)propyl)amino)pyrimido[4,5-d]pyrimidine-4(1H)-one] | 10 to 500 nM | 10 to 500 nM
7 | Nc1nc(N2CCC[C@H]2c2nc3cccc(Cl)c3c(=O)n2-c2ccccc2)c2c(=O)nc[nH]c2n1 [Example 90, (S)-7-amino-5-(2-(5-chloro-4-oxo-3-phenyl-3,4-dihydroquinazoline-2-yl)pyrrolidine-1-yl)pyrimido[4,5-d]pyrimidine-4(1H)-one] | > 500 nM | > 500 nM
8 | Nc1nc(N2CCC[C@H]2c2nc3cccc(Cl)c3c(=O)n2-c2cccnc2)c2c(=O)nc[nH]c2n1 [Example 91, (S)-7-amino-5-(2-(5-chloro-4-oxo-3-(pyridine-3-yl)-3,4-dihydroquinazoline-2-yl)pyrrolidine-1-yl)pyrimido[4,5-d]pyrimidine-4(1H)-one] | > 500 nM | > 500 nM
9 | C[C@H](Nc1ncnc2c1C(=O)CCN2)c1cc2cccc(Cl)c2c(=O)n1-c1ccccc1 [Example 97, (S)-4-((1-(8-chloro-1-oxo-2-phenyl-1,2-dihydroisoquinoline-3-yl)ethyl)amino)-7,8-dihydropyrido[2,3-d]pyrimidine-5(6H)-one] | 10 to 500 nM | < 10 nM

Now from value to molecule:

Row | IC50 [1] | IC50 [2] | SMILES
10 | 10 to 500 nM | 10 to 500 nM | C[C@H](Nc1nc(N)nc2[nH]cnc(=O)c12)c1nc2cccc(Cl)c2c(=O)n1-c1ccccc1 [Example 81, (S)-7-amino-5-((1-(5-chloro-4-oxo-3-phenyl-3,4-dihydroquinazoline-2-yl)ethyl)amino)pyrimido[4,5-d]pyrimidine-4(1H)-one]
11 | > 500 nM | > 500 nM | C[C@H](Nc1nc(N)nc2[nH]cnc(=O)c12)c1nc2cccc(Cl)c2c(=O)n1-c1cccc(F)c1 [Example 83, (S)-7-amino-5-((1-(5-chloro-3-(3-fluorophenyl)-4-oxo-3,4-dihydroquinazoline-2-yl)ethyl)amino)pyrimido[4,5-d]pyrimidine-4(1H)-one]
12 | 10 to 500 nM | 10 to 500 nM | C[C@H](Nc1nc(N)nc2[nH]cnc(=O)c12)c1nn2ccc(Cl)c2c(=O)n1-c1ccccc1 [Example 86, (S)-7-amino-5-((1-(5-chloro-4-oxo-3-phenyl-3,4-dihydropyrrolo[2,1-f][1,2,4]triazine-2-yl)ethyl)amino)pyrimido[4,5-d]pyrimidine-4(1H)-one]
13 | > 500 nM | > 500 nM | Nc1nc(N2CCC[C@H]2c2nc3cccc(Cl)c3c(=O)n2-c2cccc(F)c2)c2c(=O)nc[nH]c2n1 [Example 92, (S)-7-amino-5-(2-(5-chloro-3-(3-fluorophenyl)-4-oxo-3,4-dihydroquinazoline-2-yl)pyrrolidine-1-yl)pyrimido[4,5-d]pyrimidine-4(1H)-one]
14 | > 500 nM | > 500 nM | Cc1cccc(-n2c([C@@H]3CCCN3c3nc(N)nc4[nH]cnc(=O)c34)nc3cccc(Cl)c3c2=O)c1 [Example 93, (S)-7-amino-5-(2-(5-chloro-4-oxo-3-(m-tolyl)-3,4-dihydroquinazoline-2-yl)pyrrolidine-1-yl)pyrimido[4,5-d]pyrimidine-4(1H)-one]
15 | 10 to 500 nM | 10 to 500 nM | Nc1nc(N2CCC[C@H]2c2cc3cccc(Cl)c3c(=O)n2-c2ccccc2)c2c(=O)nc[nH]c2n1 [Example 94, (S)-7-amino-5-(2-(8-chloro-1-oxo-2-phenyl-1,2-dihydroisoquinoline-3-yl)pyrrolidine-1-yl)pyrimido[4,5-d]pyrimidine-4(1H)-one]
16 | > 500 nM | > 500 nM | Nc1nc(N2CCC[C@H]2c2nn3ccc(Cl)c3c(=O)n2-c2cccc(F)c2)c2c(=O)nc[nH]c2n1 [Example 96, (S)-7-amino-5-(2-(5-chloro-3-(3-fluorophenyl)-4-oxo-3,4-dihydropyrrolo[2,1-f][1,2,4]triazine-2-yl)pyrrolidine-1-yl)pyrimido[4,5-d]pyrimidine-4(1H)-one]
